Data from US20160220569A1, “CDK4/6 Inhibitor Dosage Formulations For The Protection Of Hematopoietic Stem And Progenitor Cells During Chemotherapy” (G1 Therapeutics, Inc., priority 2015, published 2016).
Where “and” joins values, the source holds several entries; their conditions need not be identical. Equal entries are not always repeated.

Experiment: 14-day oral gavage toxicokinetic study in rats
Assay type: in vivo
Settings: for Compound 1 Plasma Concentration: daily oral 2 mg/kg (Group 7), individual animals
Experimental: Plasma was obtained from blood samples collected from rats in a composite sampling scheme, with 3 samples collected per sex, per dose, at each target collection time, as illustrated in Table 21 to Table 25. Samples were collected from the vehicle control group on Day 1 and Day 14 at 3 hour after administration. […] Blood samples were collected in tubes containing K3EDTA as an anticoagulant and placed on ice until processed to plasma via centrifugation. Samples were stored frozen at −80° C. until shipment to the bioanalytical laboratory for analysis.
The following parameters were determined:
Cmax: Maximum observed plasma concentration (ng/mL).
A value of 0 ng/mL was assigned to all values below the lower limit of quantitation (BLQ, <10.0 ng/mL).
AUC(0-inf): Area under the plasma concentration vs. time curve extrapolated from 0 to infinity (ng*h/mL), calculated as AUC(0-t)+AUC(t-inf) where AUC(t-inf) is calculated as last measurable concentration (CLast) divided by ke, where ke is the elimination rate constant determined by linear regression of the last three analytically measured points on the log plasma concentration vs. time curve. The selection criteria of the data points for inclusion in the calculation of ke required that at least three data points representing the terminal phase (after Tmax) were regressed and that R2≧0.850 when rounded.
CL: Clearance (L/h/kg), calculated as the dose divided by AUC(0-t).
Vd: Volume of distribution (L/kg), calculated as dose divided by the product of ke and AUC(0-inf).
Vdss: Steady state volume of distribution (L/kg), calculated as clearance […] mean residence time, where mean residence time is calculated as the area under the first moment curve divided by AUC(0-t).
t½: Elimination half-life (h), calculated as ln(2)/ke, where ke is the elimination rate constant determined by linear regression. Half-life was defined as not determined if regression criteria (specified in AUC(0-inf) above) were not met.
Cmax/Dose: Normalized Cmax, calculated as Cmax divided by total dose.
AUC/Dose: Normalized AUC, calculated as AUC(0-t) divided by total dose.
ii. Statistical Analysis Mean and standard deviation (SD) were calculated in Watson. Values of BLQ were assigned a value of 0 ng/mL for mean calculations. Concentration values and derived TK parameters were reported to three significant figures.

[1] = male, rat, plasma, po, 30 mg/kg, oral 30 mg/kg, Study Day 14, Male

Structure (SMILES): CN1CCN(c2ccc(Nc3ncc4cc5n(c4n3)C3(CCCCC3)CNC5=O)nc2)CC1 [Compound 1, 2′-((5-(4-methylpiperazin-1-yl)pyridin-2-yl)amino)-7′,8′-dihydro-6′H-spiro[cyclohexane-1,9′-pyrazino[1′,2′:1,5]pyrrolo[2,3-d]pyrimidin]-6′-one]
- AUC(0-t) [1]: 29.3 µg·h/mL
- Cmax [1]: 2.03 µg/mL
- Tmax [1]: 4 h
- half-life (male, rat, plasma, po, 30 mg/kg, oral 30 mg/kg, Study Day 14, Male, read-out: t½ (converted)): 4.88 h
- Compound 1 Plasma Concentration (rats, Female, Day 1, 0.5 h, 2 mg/kg): 69.7 ng/mL and 120 ng/mL
- Compound 1 Plasma Concentration (rats, Female, Day 1, 1 h, 2 mg/kg): 53.3 ng/mL and 115 ng/mL and 106 ng/mL
- Compound 1 Plasma Concentration (rats, Female, Day 1, 2 h, 2 mg/kg): 185 ng/mL and 187 ng/mL
- Compound 1 Plasma Concentration (rats, Female, Day 1, 4 h, 2 mg/kg): 90.2 ng/mL and 201 ng/mL and 234 ng/mL
- Compound 1 Plasma Concentration (rats, Female, Day 1, 8 h, 2 mg/kg): 70.0 ng/mL and 69.2 ng/mL and 151 ng/mL
- Compound 1 Plasma Concentration (rats, Female, Day 1, 12 h, 2 mg/kg): 100 ng/mL and 54.7 ng/mL
- Compound 1 Plasma Concentration (rats, Female, Day 1, 24 h, 2 mg/kg): BLQ (Below the lower limit of quantitation (<10.0 ng/mL)) and 28.8 ng/mL and 10.2 ng/mL
- Compound 1 Plasma Concentration (rats, Female, Day 1, […]): BLQ (Below the lower limit of quantitation (<10.0 ng/mL))
- Compound 1 Plasma Concentration (rats, Female, Day 14, 0.5 h, 2 mg/kg): 108 ng/mL
- Compound 1 Plasma Concentration (rats, Female, Day 14, 1 h, 2 mg/kg): 113 ng/mL
- Compound 1 Plasma Concentration (rats, Female, Day 14, 2 h, 2 mg/kg): 200 ng/mL
- Compound 1 Plasma Concentration (rats, Female, Day 14, 4 h, 2 mg/kg): 119 ng/mL
- Compound 1 Plasma Concentration (rats, Female, Day 14, 8 h, 2 mg/kg): 54.0 ng/mL
- Compound 1 Plasma Concentration (rats, Female, Day 14, 12 h, 2 mg/kg): 65.4 ng/mL and 32.0 ng/mL
- Compound 1 Plasma Concentration (rats, Female, Day 14, 24 h, 2 mg/kg): BLQ (Below the lower limit of quantitation (<10.0 ng/mL))
- Compound 1 Plasma Concentration (rats, Female, Day 14, Predose): BLQ (Below the lower limit of quantitation (<10.0 ng/mL))
- Compound 1 Plasma Concentration (rats, Female, Day 14, […], 2 mg/kg): BLQ (Below the lower limit of quantitation (<10.0 ng/mL))
- Compound 1 Plasma Concentration (rats, Male, Day 1, 0.5 h, 2 mg/kg): 64.1 ng/mL and 74.1 ng/mL and 35.0 ng/mL
- Compound 1 Plasma Concentration (rats, Male, Day 1, 1 h, 2 mg/kg): 47.1 ng/mL and 65.2 ng/mL
- Compound 1 Plasma Concentration (rats, Male, Day 1, 2 h, 2 mg/kg): 113 ng/mL and 95.5 ng/mL
- Compound 1 Plasma Concentration (rats, Male, Day 1, 4 h, 2 mg/kg): 107 ng/mL and 148 ng/mL
- Compound 1 Plasma Concentration (rats, Male, Day 1, 8 h, 2 mg/kg): 108 ng/mL and 64.1 ng/mL
- Compound 1 Plasma Concentration (rats, Male, Day 1, 12 h, 2 mg/kg): 61.3 ng/mL and 47.8 ng/mL
- Compound 1 Plasma Concentration (rats, Male, Day 1, 24 h): BLQ (Below the lower limit of quantitation (<10.0 ng/mL))
- Compound 1 Plasma Concentration (rats, Male, Day 1, […]): BLQ (Below the lower limit of quantitation (<10.0 ng/mL))
- Compound 1 Plasma Concentration (rats, Male, Day 14, 0.5 h, 2 mg/kg): 49.0 ng/mL and 55.7 ng/mL
- Compound 1 Plasma Concentration (rats, Male, Day 14, 1 h, 2 mg/kg): 34.9 ng/mL and 61.2 ng/mL
- Compound 1 Plasma Concentration (rats, Male, Day 14, 2 h, 2 mg/kg): 109 ng/mL and 91.3 ng/mL
- Compound 1 Plasma Concentration (rats, Male, Day 14, 4 h, 2 mg/kg): 119 ng/mL and 112 ng/mL
- Compound 1 Plasma Concentration (rats, Male, Day 14, 8 h, 2 mg/kg): 112 ng/mL and 102 ng/mL
- Compound 1 Plasma Concentration (rats, Male, Day 14, 12 h, 2 mg/kg): 50.8 ng/mL and 45.6 ng/mL
- Compound 1 Plasma Concentration (rats, Male, Day 14, 24 h): BLQ (Below the lower limit of quantitation (<10.0 ng/mL))
- Compound 1 Plasma Concentration (rats, Male, Day 14, Predose): BLQ (Below the lower limit of quantitation (<10.0 ng/mL))
- Compound 1 Plasma Concentration (rats, Male, Day 14, […]): BLQ (Below the lower limit of quantitation (<10.0 ng/mL))
- Mean Compound 1 Plasma Concentration (rats, oral 2 mg/kg, Day 1, 24 h, Male, BLQ = <10.0 ng/mL): BLQ
- Mean Compound 1 Plasma Concentration (rats, oral 2 mg/kg, Day 1, […], Female, BLQ = <10.0 ng/mL): BLQ
- Mean Compound 1 Plasma Concentration (rats, oral 2 mg/kg, Day 1, […], Male, BLQ = <10.0 ng/mL): BLQ
- Mean Compound 1 Plasma Concentration (rats, oral 2 mg/kg, Day 1, […], Overall, BLQ = <10.0 ng/mL): BLQ
- Mean Compound 1 Plasma Concentration (rats, oral 2 mg/kg, Day 14, 24 h, Male, BLQ = <10.0 ng/mL): BLQ
- Mean Compound 1 Plasma Concentration (rats, oral 2 mg/kg, Day 14, Pre-dose, Female, BLQ = <10.0 ng/mL): BLQ
- Mean Compound 1 Plasma Concentration (rats, oral 2 mg/kg, Day 14, Pre-dose, Male, BLQ = <10.0 ng/mL): BLQ
- Mean Compound 1 Plasma Concentration (rats, oral 2 mg/kg, Day 14, Pre-dose, Overall, BLQ = <10.0 ng/mL): BLQ
- Mean Compound 1 Plasma Concentration (rats, oral 2 mg/kg, Day 14, […], Male, BLQ = <10.0 ng/mL): BLQ
- Mean Compound 1 Plasma Concentration (rats, oral 5 mg/kg, Day 14, Pre-dose, Male): 20.0 ng/mL
- Mean Compound 1 Plasma Concentration (rats, oral 5 mg/kg, Day 14, Pre-dose, Overall): 18.6 ng/mL
- Mean Compound 1 Plasma Concentration (rats, oral 15 mg/kg, Day 14, Pre-dose, Female): 120 ng/mL
- Mean Compound 1 Plasma Concentration (rats, oral 15 mg/kg, Day 14, Pre-dose, Male): 78.0 ng/mL
- Mean Compound 1 Plasma Concentration (rats, oral 15 mg/kg, Day 14, Pre-dose, Overall): 99.2 ng/mL
- Mean Compound 1 Plasma Concentration (rats, oral 30 mg/kg, Day 14, Pre-dose, Female): 336 ng/mL
- Mean Compound 1 Plasma Concentration (rats, oral 30 mg/kg, Day 14, Pre-dose, Overall): 254 ng/mL
- systemic exposure with increasing dose level (rats, oral, Days 1 and 14): increased roughly proportionally
